Tests used:
[1] = test system: Ngf, Bdnf, Tnf-a, Il-6 gene expression; experiment: Real-time PCR gene expression in hippocampus of 5XFAD mice; format: in vivo, mouse; conditions: 2 mg/Kg
Experimental: (§1) Four-month-old female and male Wt and 5XFAD mice (n = 32) were used to carry out cognitive and molecular analyses. […] The animals had free access to food and water and were kept under standard temperature conditions (22 ± 2 °C) and 12 h/12 h light/dark cycles (300 lx/0 lx). […] After 4 weeks of treatment, cognitive tests, including short- and long-term memory and OLT, were performed to study the effects of treatment on learning and memory. Weight and water consumption were controlled each week, and the LSL33 concentration was adjusted accordingly to reach the optimal dose until euthanasia.
(§2) Three days after cognitive tests, mice were euthanized for protein extraction and RNA and DNA isolation. After euthanasia, the brains were immediately removed from the skulls, and the hippocampi were dissected, frozen, and maintained at −80 °C.
Total RNA isolation was carried out using TRIzol® reagent according to the manufacturer’s instructions. The yield, purity, and quality of RNA were determined spectrophotometrically with a NanoDrop™ ND-1000 apparatus (Thermo Scientific, Waltham, MA, USA) and an Agilent 2100B Bioanalyzer (Agilent Technologies, Santa Clara, CA, USA). RNA samples with 260/280 ratios and RNA integrity numbers (RINs) higher than 1.9 and 7.5, respectively, were selected. A reverse transcription-polymerase chain reaction (RT-PCR) was performed. Briefly, 2 μg of messenger RNA (mRNA) was reverse-transcribed using a high-capacity cDNA reverse transcription kit (Applied Biosystems, Foster City, CA, USA).
SYBR® Green real-time PCR was performed on a StepOnePlus Detection System (Applied Biosystems) with SYBR® Green PCR master mix (Applied Biosystems). Each reaction mixture contained 6.75 μL of complementary DNA (cDNA) (with a concentration of 2 μg), 0.75 μL of each primer (with a concentration of 100 nM), and 6.75 μL of SYBR® Green PCR master mix (2×).
The data were analyzed utilizing the comparative cycle threshold (Ct) (ΔΔCt) method, in which the levels of a housekeeping gene are used to normalize differences in sample loading and preparation. Normalization of expression levels was performed with β-actin for SYBR® Green-based real-time PCR. Each sample was analyzed in duplicate, and the results represent the n-fold differences in the transcript levels among different groups.
Figure 7 Results from an in vivo study of synaptic plasticity markers. (A) Representative protein levels and quantification by WB for PSD95. (B,C) Representative gene expression for Ngf and Bdnf Gene expression levels were determined by real-time PCR. The data correspond to the mean ± SEM (n = 3–5 mice per group). […]
Figure 8 Results from an in vivo study Neuroinflammatory markers. Representative gene expression for Tnf-a and Il-6 Gene expression levels were determined by real-time PCR. […]

PSD95 = experiment: Western blot of hippocampal PSD95 in 5XFAD mice; format: in vivo, mouse; conditions: 5XFAD hippocampus, 2 mg/Kg, vs 5XFAD Control
Experimental: as §1, §2
For western blotting (WB), aliquots of 20 μg of hippocampal protein were used. […]
The membranes were washed and incubated with secondary antibodies for 1 h at room temperature. […] Protein loading was routinely monitored by immunodetection of glyceraldehyde-3-phosphate dehydrogenase (GAPDH).
Figure 7 Results from an in vivo study of synaptic plasticity markers. (A) Representative protein levels and quantification by WB for PSD95. (B,C) Representative gene expression for Ngf and Bdnf Gene expression levels were determined by real-time PCR. […]

[2] = 5XFAD hippocampus, vs 5XFAD Control

In the case of `Cl.c1ccc2sc(-c3ncc[nH]3)cc2c1` [LSL33, 2-(Benzo[b]thiophene-2-yl)-1H-imidazole hydrochloride], the Il-6 gene expression [1, 2] is reported as “clear tendency to reduce both cytokines”, the Ngf gene expression [1, 2] is reported as “significant increase in Ngf gene expression” and the Tnf-a gene expression [1, 2] is reported as “clear tendency to reduce both cytokines”. For the same compound, the Bdnf gene expression ([1]; both treated groups (Wt and 5XFAD)) was “clear tendency to increase” and the PSD95 protein levels (PSD95) was “increase in PSD95”.

Source: PMC10610545, “Preclinical Evaluation of an Imidazole-Linked Heterocycle for Alzheimer’s Disease” (Pharmaceutics, 2023)
